US8450317B2, “CXCR3 receptor antagonists” (Boehringer Ingelheim International GmbH, priority 2009, dated 2013)

Target: CXCR3 (Macaca fascicularis, UniProt A0A2K5UV19)
Assay: functional cellular assay measuring calcium flux in CXCR3 transfected cells (block of CXCR3/IP-10 interaction)
Assay type: cell-based, Cyno
Conditions: not given
Protocol: Compounds are assessed for the ability to block the interaction of CXCR3 and IP-10 in a functional cellular assay measuring calcium flux in CXCR3 transfected cells.
Cyno-CHO cells, stably expressing recombinant CXCR3 and G-alpha-16 are grown in F12 medium (Mediatech #45000-360) supplemented with 10% (V/V) FBS (Mediatech #35-01500), 1% Geneticin (Invitrogen #10131-027) and 0.2% Zeocin (Invitrogen #R250-05). The cells are spun down and re-suspended in growth media to a concentration of […]. 25 microL of cell suspension is added to each well of a BD-384-well TC treated plate, providing 12,000 cells/well. The plate is incubated at 37° C./5% CO2 overnight. On the day of the assay, the plates are removed, the media is flicked out and 25 microL of Ca-4 dye in assay buffer (HBSS, 10 mM HEPES ph 7.4), containing 2 mM probenacid is added to each well. The cell assay plates are then incubated at 37° C./5% CO2 for one hour.
Test compounds are dissolved in DMSO and diluted to 1.045 mM in DMSO. Just prior to assay, 2.75 microL of appropriately diluted test compound are added to each well of a 384 well plate containing 45 microL of HBSS buffer. After mixing, 5 microL of diluted compound are added to each well of the cell assay plate for a final assay concentration of 10 microM. The plate is incubated at room temperature for 15 min. 10 microL of IP-10 stock solution in HBSS (4× EC80 concentration) are added to each well of the cell assay plate except those cells reserved as blank wells containing buffer only. Intracellular calcium flux is recorded on the HAMAMTSU FDSS6000, using excitation at 480 nm and emission at 540 nm. Data are analyzed using Activity Base software.
In general, the preferred potency range (IC50) of compounds in the above assay is between 1 nM to 3 μM, and the most preferred potency range is 1 nM to 200 nM.

Chain of CXCR3 (A0A2K5UV19 entry or part of it): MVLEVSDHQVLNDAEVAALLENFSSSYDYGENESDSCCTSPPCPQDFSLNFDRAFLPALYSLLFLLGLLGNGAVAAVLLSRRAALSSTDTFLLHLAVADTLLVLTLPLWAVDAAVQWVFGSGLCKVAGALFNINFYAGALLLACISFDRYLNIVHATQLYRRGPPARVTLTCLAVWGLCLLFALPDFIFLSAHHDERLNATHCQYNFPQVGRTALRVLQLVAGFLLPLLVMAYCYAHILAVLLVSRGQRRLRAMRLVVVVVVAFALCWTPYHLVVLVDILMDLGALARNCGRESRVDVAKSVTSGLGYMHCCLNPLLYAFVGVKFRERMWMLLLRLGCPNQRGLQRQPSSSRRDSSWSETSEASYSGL

| SMILES | IC50 [nM] |
| --- | --- |
| COc1ncc(-c2ccccc2N2CC3CCC(C2)N3C(=O)Cn2ccc3cccnc32)cn1 [1-{3-[2-(2-Methoxy-pyrimidin-5-yl)-phenyl]-3,8-diaza-bicyclo[3.2.1]oct-8-yl}-2-pyrrolo[2,3-b]pyridin-1-yl-ethanone] | 7 |

Same assay, conditions: IP-10 induced intracellular calcium flux; Cyno-CHO cells stably expressing recombinant CXCR3 and G-alpha-16; IP-10 at EC80; read-out: IC50

| SMILES | IC50 [nM] |
| --- | --- |
| COc1cc(NC(=O)c2cc(F)ccc2N2CCN(C(=O)CN(C)C(=O)C(C)C)[C@@H](C)C2)ccn1 [5-fluoro-N-(2-methoxypyridin-4-yl)-2-{(3S)-3-methyl-4-[N-methyl-N-(2-methylpropanoyl)glycyl]piperazin-1-yl}benzamide] | 11 |
| CNC(=O)C1CCN(c2ncc(-c3ccccc3N3CCN(C(=O)Cn4nc(C)cc4C)CC3)cn2)CC1 [1-[5-(2-{4-[2-(3,5-Dimethyl-pyrazol-1-yl)-acetyl]-piperazin-1-yl}-phenyl)-pyrimidin-2-yl]-piperidine-4-carboxylic acid methylamide] | 9 |
| Cc1cc(C)n(CC(=O)N2CCN(c3ccccc3-c3cccc(Cl)c3)CC2)n1 [1-[4-(3′-Chloro-biphenyl-2-yl)-piperazin-1-yl]-2-(3,5-dimethyl-pyrazol-1-yl)-ethanone] | 111 |
| COc1ncc(-c2ccccc2N2CCN(C(=O)Cn3cc4ccccc4n3)CC2)cn1 [2-Indazol-2-yl-1-{4-[2-(2-methoxy-pyrimidin-5-yl)-phenyl]-piperazin-1-yl}-ethanone] | 28 |
| CC1CN(c2ccccc2-c2cnc(N3CCC(O)CC3)nc2)CCN1C(=O)CN1Cc2ccccc2C1=O (stereo not drawn) [2-[2-(4-{2-[2-(4-hydroxypiperidin-1-yl)pyrimidin-5-yl]phenyl}-2-methylpiperazin-1-yl)-2-oxoethyl]-2,3-dihydro-1H-isoindol-1-one] | 10 |
| N#Cc1ccc(-c2ccccc2N2CCN(C(=O)CNc3nccs3)CC2)cn1 [5-(2-{4-[2-(Thiazol-2-ylamino)-acetyl]-piperazin-1-yl}-phenyl)-pyridine-2-carbonitrile] | 47 |
| Cc1cc(C)n(CC(=O)N2CCN(c3ccc(C#N)cc3-c3cnc(N4CCOCC4)nc3)CC2)n1 [4-{4-[2-(3,5-Dimethyl-pyrazol-1-yl)-acetyl]-piperazin-1-yl}-3-(2-morpholin-4-yl-pyrimidin-5-yl)-benzonitrile] | 18 |
| O=C(Cn1ccc2cccnc21)N1CCN(c2ccc(F)cc2-c2cnc(N3CCCC3)nc2)CC1 [1-(4-{4-fluoro-2-[2-(pyrrolidin-1-yl)pyrimidin-5-yl]phenyl}piperazin-1-yl)-2-(1H-pyrrolo[2,3-b]pyridin-1-yl)ethanone] | 15 |
| Cc1cc(C)n(CC(=O)N2CCN(c3ccccc3-c3cnc(N4CCC5CCCCC5C4)nc3)CC2)n1 (stereo not drawn) [2-(3,5-Dimethyl-pyrazol-1-yl)-1-(4-{2-[2-(octahydro-isoquinolin-2-yl)-pyrimidin-5-yl]-phenyl}-piperazin-1-yl)-ethanone] | 21 |
| O=C(Cn1cnc2cccnc21)N1CCN(c2ccc(F)cc2-c2cnc(N3CCCC3)nc2)CC1 [1-(4-{4-fluoro-2-[2-(pyrrolidin-1-yl)pyrimidin-5-yl]phenyl}piperazin-1-yl)-2-(3H-imidazo[4,5-b]pyridin-3-yl)ethanone] | 14 |
| CC1CN(c2ccc(C(F)(F)F)cc2-c2cnc(N3CCC(O)CC3)nc2)CCN1C(=O)Cn1cnc2cccnc21 (stereo not drawn) [1-(4-{2-[2-(4-hydroxypiperidin-1-yl)pyrimidin-5-yl]-4-(trifluoromethyl)phenyl}-2-methylpiperazin-1-yl)-2-(3H-imidazo[4,5-b]pyridin-3-yl)ethanone] | 11 |
| Cc1cc(C)n(CC(=O)N2CCN(c3ccccc3-c3cnc(N4CCC(C(N)=O)CC4)nc3)CC2)n1 [1-[5-(2-{4-[2-(3,5-Dimethyl-pyrazol-1-yl)-acetyl]-piperazin-1-yl}-phenyl)-pyrimidin-2-yl]-piperidine-4-carboxylic acid amide] | 6 |
| CSc1ncc(-c2cc(C#N)ccc2N2CCN(C(=O)Cn3nc(C)cc3C)CC2)cn1 [4-{4-[2-(3,5-Dimethyl-pyrazol-1-yl)-acetyl]-piperazin-1-yl}-3-(2-methylsulfanyl-pyrimidin-5-yl)-benzonitrile] | 36 |
| COc1ncc(-c2cc(F)ccc2N2CCN(C(=O)Cn3nc(C)cc3C)CC2)cn1 [2-(3,5-Dimethyl-pyrazol-1-yl)-1-{4-[4-fluoro-2-(2-methoxy-pyrimidin-5-yl)-phenyl]-piperazin-1-yl}-ethanone] | 14 |
| C[C@@H]1CN(c2ccc(F)cc2C(=O)Nc2nc3c(s2)CN(C)CC3)CCN1C(=O)CN1Cc2ccccc2C1=O [5-fluoro-2-{(3R)-3-methyl-4-[(1-oxo-1,3-dihydro-2H-isoindol-2-yl)acetyl]piperazin-1-yl}-N-(5-methyl-4,5,6,7-tetrahydro[1,3]thiazolo[5,4-c]pyridin-2-yl)benzamide] | 15 |
| COc1ncc(-c2cc(F)ccc2N2CCN(C(=O)Cn3ccc4ccncc43)CC2)cn1 [1-{4-[4-fluoro-2-(2-methoxypyrimidin-5-yl)phenyl]piperazin-1-yl}-2-(1H-pyrrolo[2,3-c]pyridin-1-yl)ethanone] | 13 |
| O=C(Cn1ccc2cccnc21)N1CCN(c2ccccc2-c2cnc(N3CCCCC3)nc2)CC1 [1-{4-[2-(2-Piperidin-1-yl-pyrimidin-5-yl)-phenyl]-piperazin-1-yl}-2-pyrrolo[2,3-b]pyridin-1-yl-ethanone] | 11 |
| COc1ncc(-c2ccccc2N2CCN(C(=O)Cn3ccc4c(Cl)ncnc43)CC2)cn1 [2-(4-Chloro-pyrrolo[2,3-d]pyrimidin-7-yl)-1-{4-[2-(2-methoxy-pyrimidin-5-yl)-phenyl]-piperazin-1-yl}-ethanone] | 48 |
| CC1CN(c2ccccc2-c2cnc(N3CCC(O)CC3)nc2)CCN1C(=O)Cn1c(=O)[nH]c2ccccc21 (stereo not drawn) [1-[2-(4-{2-[2-(4-hydroxypiperidin-1-yl)pyrimidin-5-yl]phenyl}-2-methylpiperazin-1-yl)-2-oxoethyl]-1,3-dihydro-2H-benzimidazol-2-one] | 8 |
| Cc1cc(C)n(CC(=O)N2CCN(c3ccccc3-c3cnc(N4CCC(F)CC4)nc3)CC2)n1 [2-(3,5-Dimethyl-pyrazol-1-yl)-1-(4-{2-[2-(4-fluoro-piperidin-1-yl)-pyrimidin-5-yl]-phenyl}-piperazin-1-yl)-ethanone] | 10 |
| CC1CN(c2ccc(C(F)(F)F)cc2-c2cnc(N3CCC(O)CC3)nc2)CCN1C(=O)Cn1c(=O)[nH]c2ccccc21 (stereo not drawn) [1-[2-(4-{2-[2-(4-hydroxypiperidin-1-yl)pyrimidin-5-yl]-4-(trifluoromethyl)phenyl}-2-methylpiperazin-1-yl)-2-oxoethyl]-1,3-dihydro-2H-benzimidazol-2-one] | 9 |
| CC1CN(c2ccc(C(F)(F)F)cc2-c2cnc(S(C)(=O)=O)nc2)CCN1C(=O)Cn1c(=O)[nH]c2ccccc21 (stereo not drawn) [1-[2-(2-methyl-4-{2-[2-(methylsulfonyl)pyrimidin-5-yl]-4-(trifluoromethyl)phenyl}piperazin-1-yl)-2-oxoethyl]-1,3-dihydro-2H-benzimidazol-2-one] | 20 |
| O=C(Cn1c(=O)[nH]c2ccccc21)N1CCN(c2ccc(F)cc2-c2cnc(N3CCOCC3)nc2)CC1 [1-[2-(4-{4-fluoro-2-[2-(morpholin-4-yl)pyrimidin-5-yl]phenyl}piperazin-1-yl)-2-oxoethyl]-1,3-dihydro-2H-benzimidazol-2-one] | 11 |
| Cc1cc(C)n(CC(=O)N2CCN(c3ccc(F)cc3-c3cnc(N4CCC(O)CC4)nc3)CC2)n1 [2-(3,5-dimethyl-1H-pyrazol-1-yl)-1-(4-{4-fluoro-2-[2-(4-hydroxypiperidin-1-yl)pyrimidin-5-yl]phenyl}piperazin-1-yl)ethanone] | 9 |
| COc1cc(NC(=O)c2cc(F)ccc2N2CCN(C(=O)CN(C)C(=O)C(C)C)[C@H](C)C2)ccn1 [5-fluoro-N-(2-methoxypyridin-4-yl)-2-{(3R)-3-methyl-4-[N-methyl-N-(2-methylpropanoyl)glycyl]piperazin-1-yl}benzamide] | 9 |
| Cc1cc(C)n(CC(=O)N2CCN(c3ccccc3-c3cnc(N4CCC(C)(C)CC4)nc3)CC2)n1 [1-(4-{2-[2-(4,4-Dimethyl-piperidin-1-yl)-pyrimidin-5-yl]-phenyl}-piperazin-1-yl)-2-(3,5-dimethyl-pyrazol-1-yl)-ethanone] | 12 |
| COc1ncc(-c2ccccc2N2CCN(C(=O)Cn3cnc4cccnc43)CC2)cn1 [2-Imidazo[4,5-b]pyridin-3-yl-1-{4-[2-(2-methoxy-pyrimidin-5-yl)-phenyl]-piperazin-1-yl}-ethanone] | 15 |
| CN1CCN(c2ncc(-c3ccccc3N3CCN(C(=O)Cn4ccc5cccnc54)CC3)cn2)CC1 [1-(4-{2-[2-(4-Methyl-piperazin-1-yl)-pyrimidin-5-yl]-phenyl}-piperazin-1-yl)-2-pyrrolo[2,3-b]pyridin-1-yl-ethanone] | 11 |
| COc1ncc(-c2ccccc2N2CCN(C(=O)Cn3nc(C)c(Cl)c3C)CC2)cn1 [2-(4-Chloro-3,5-dimethyl-pyrazol-1-yl)-1-{4-[2-(2-methoxy-pyrimidin-5-yl)-phenyl]-piperazin-1-yl}-ethanone] | 10 |
